Data taken from US12390467B2, “Necroptosis inducers or autophagy inhibitors or a combination thereof” (The University of Toledo, priority 2018, dated 2025).

Tests used:
Assay type in all cases: cell-based
[1] = tested on: MDA-MB231 (TNBC cell line); test: MTT cell viability assay, MDA-MB231; details: Homo sapiens, MDA-MB-231, 72 h, read-out: IC50 ± SD, MDA-MB231
Experimental: (§1) The following cancer and non-cancer cell lines were used in the initial cytotoxicity screening of the TPH104 compounds: triple negative breast cancer (TNBC): MDA-MB468, MDA-MB 231, and BT-20; non-TNBC: MCF-7 and ZR-75-1; ovarian: Ov2008; prostate: DU145; colon: HCT-116, S1, and LOVO; lung: H460; normal kidney: HEK-293; normal breast: HMEC; and normal colon: CRL-1459. All cells were cultured in Dulbecco's modified Eagle medium (DMEM), supplemented with 10% fetal bovine serum (FBS), and 1% penicillin/streptomycin (P/S). Cells were allowed to grow as adherent monolayers in T25 flasks in a humidified incubator with 5% CO2 at 37° C. for a period of 24 h, unless otherwise specified for certain experiments.
(§2) The MTT assay was used to determine the cytotoxicity of all of the compounds. Briefly, in a 96-well flat-bottom cell culture plate, the cells were seeded at a density between 3-5×10^3 cells/well (180 μl in each well) and incubated for 24 h (a hemocytometer was used for cell counting). The next day, the cells were incubated with different concentrations of the nine compounds (0, 0.1, 0.3, 1, 3, 10, 30, and 100 μM) for 72 h. After 72 h, 20 μl of 5 mg/ml of 3-(4,5-dimethylthiazol-2-yl)-2,5-diphenyltetrazolium bromide (MTT) was added to the plate and incubated with the cells for 3 h at 37° C. In this experiment, the living cells will reduce the soluble MTT dye to non-soluble purple formazan crystals. Following incubation, the media containing MTT removed via suction and 100 μL of 100% dimethyl sulfoxide (DMSO) was added to dissolve the formazan crystals. Subsequently, the plate was shaken for 2 minutes and the absorbance was measured at a wavelength of 570 nm using a SpectraMax iD3 Multi-Mode Microplate Reader (Molecular Devices, Sunnyvale, CA). The IC50 values of each compound were calculated and used to determine the selectivity ratio (IC50 in normal cells/IC50 in cancer cells) of each compound as previously described. Based on the results obtained from these experiments, the compound TPH104, which had the lowest IC50 value, was selected for further experiments.

[2] = tested on: MDA-MB468 (TNBC cell line); test: MTT cell viability assay, MDA-MB468; details: Homo sapiens, MDA-MB-468, 72 h, read-out: IC50 ± SD, MDA-MB468
Experimental: as §1, §2

[3] = tested on: ZR-75-1 (non-TNBC cell line); test: MTT cell viability assay, ZR-75-1; details: Homo sapiens, ZR-75-1, 72 h, read-out: IC50 ± SD, ZR-75-1
Experimental: as §1, §2

[4] = tested on: MCF-7 (non-TNBC cell line); test: MTT cell viability assay, MCF-7; details: Homo sapiens, MCF7, 72 h, read-out: IC50 ± SD, MCF-7
Experimental: as §1, §2

[5] = tested on: normal human mammary epithelial cells (HMEC); test: MTT cell viability assay, HMEC; details: Homo sapiens, HMEC; MTT, 72 h; Normal; read-out: IC50 ± SD, HMEC
Experimental: as §1, §2

TNBC cell lines = test: Cytotoxicity screening (MTT), TNBC cell lines overall; details: classification of Table 1 cytotoxicity data
Source text: To this end, several commercial databases were searched, and 17 similar molecules from the VitasM database were retrieved with considerable structural diversity in terms of the substitution on the aryl ring A attached to the thienopyrimidine scaffold and aryl ring B attached to hydrazino moiety. Further, the biological evaluation of the 17 molecules sheds light on the structural features deemed important for the selective cytotoxicity shown by this class of molecules. With this understanding, the 17 molecules were subjected to a screening protocol comprising of two TNBC, two non-TNBC, and one normal cell lines.
as §1, §2

BT-20 cells = test: Acridine orange assay; details: 20 μM, 12 h, vs vehicle
Experimental: The cell-permeant, nucleic acid binding dye, acridine orange (AO) was used to assess the effect of TPH104 on the activation of lysosomes. A 10 μg/ml stock solution was prepared using PBS. The TNBC cells were seeded in a 6-well plate as described in the cell cycle assay. After overnight incubation, cells were incubated with TPH104 (1, 2, 5 μM), vehicle or 20 uM of chloroquine (CQ, […]) for 12 h. The media was removed via suction and 1 ml of AO, diluted in 1:1000 in PBS, was added to each well and the plate was incubated for an additional 30 minutes. Cells were washed three times in PBS to remove excess dye. The cells from each well were captured from randomly selected fields using a fluorescent microscope (EVOS-FLC cell imaging system, Thermofisher scientific) at 40× to determine the AO fluorescence intensity which is positively correlated to lysosomal activation.

BT-20 or MDA-MB468 cells = test: Cellular reactive oxygen species (ROS) detection assay (H2DCFDA); details: 2 μM
Experimental: To assess the effect of TPH104 on the generation of ROS, a cell permeant, fluorogenic dye, 2′,7′-dichlorofluorescin diacetate, H2DCFDA, was used. A 5 mM stock solution was prepared using DMSO and PBS was used to prepare the 3 μM working solution of H2DCFDA. The TNBC cells were seeded in a 6-well plate as described in the cell cycle assay. After overnight incubation, cells were incubated with different TPH104 (1, 2, 5 μM) or vehicle for 12 h or with 2 μM of paclitaxel (positive control) for 2 h. The H2DCFDA dye (3 μM) was added to each well and the plate was incubated for an additional 30 minutes. Subsequently, cells were washed 3 times in PBS to remove excess H2DCFDA dye. Thereafter, cells from each well were captured from randomly selected fields using a fluorescent microscope (EVOS-FLC cell imaging system, Thermofisher scientific) at 40× to determine the 2′,7′-dichlorofluorescein (DCF) fluorescence intensity, which is positively correlated with the generation of ROS.

[6] = tested on: RIP, p-RIP, MLKL, caspase 8 in MDA-MB468 cells; test: Western blot, necroptotic proteins, MDA-MB468; details: 100 μM
Experimental: The TNBC cells were seeded in a culture flask and incubated for 24 h. The cells were then incubated with different concentrations of the lead compounds and re-incubated for an additional 12 or 24 h. […] The bicinchoninic acid (BCA) was used to determine protein concentration in the cell extracts (G-BIOSCIENCES, St. Louis, MO, USA). […] The membrane was blocked using 5% milk in Tris-buffered Tween 20 saline for 30 minutes. The membrane was then incubated overnight with primary antibodies against Bak, Bax, Bcl-2, caspase9, caspase 3, caspase 7, PARP, cytochrome c, N-cadherin, E-cadherin, c-Myc, dishevelled segment polarity protein 3 (DVL3), dishevelled segment polarity protein 2 (DVL2), Vimentin, mitogen-activated protein kinase kinase (MAPKK also known as MEK1/2), β-catenin, low-density lipoprotein receptor-related protein 6 (LRP6), receptor-interacting protein kinase (RIP), phosphorylated RIP (p-RIP), mixed lineage kinase domain like pseudokinase(MLKL), Caspase 8, light chain 3 (LC3), lysosomal-associated membrane protein 1 (LAMP1), unc-51 like autophagy activating kinase 1 (ULK1), ras associated protein 7 (Rab7), ras associated protein 5 (Rab5), Beclin 1, mechanistic target of rapamycin (mTOR), tumor necrosis factor alpha (TNF-α), tumor necrosis factor receptor 1 (TNFR1), tumor necrosis factor receptor 2 (TNFR2), Fas-associated protein with death domain (FADD), Fas ligand (Fas), TNF-related apoptosis-inducing ligand (TRAIL), death receptor 5 (DR5), Tumor necrosis factor receptor type 1-associated DEATH domain (TRADD), receptor-interacting protein kinase 3 (RIP3), β-actin or GAPDH in 1:1000 dilution in 5% milk or 5% BSA at 4° C. Horseradish peroxidase-labeled (HRP) anti-rabbit or anti-mouse secondary antibodies (1:5,000 dilution) were added and incubated the next day for an additional 1 h. A ChemiDoc™ MP System imaging system from Bio-Rad (Hercules, CA, USA) was used for blots reading. Blots were used to obtain the protein bands, followed by quantification of the bands using image J software (NIH, Bethesda, MD, USA). All of the data were expressed as the ratio of β-actin or GAPDH.

Compound | IC50 [1] [µM] | IC50 [2] [µM] | IC50 [3] [µM] | IC50 [4] [µM] | IC50 [5] [µM] | potency compared to TPH104 (TNBC cell lines) | AO fluorescence intensity, negative control (BT-20 cells) | DCF fluorescence (ROS), positive control (BT-20 or MDA-MB468 cells) | expression of RIP, p-RIP, MLKL, and caspase 8 [6]
Oc1ccccc1/C=N/Nc1ncnc2scc(-c3ccc(Cl)cc3)c12 [TPH104a] | 0.28 ± 0.06 | 0.44 ± 0.26 | 2.29 ± 0.23 | 6.96 ± 1.15 | 27.9 ± 8.95 | comparable potency to that of TPH104 |  |  | 
Oc1c(/C=N/Nc2ncnc3scc(-c4ccccc4)c23)cc2c3c1CCCN3CCC2 [TPH104b] | 0.25 ± 0.02 | 0.23 ± 0.05 | 1.18 ± 0.53 | 1.52 ± 0.57 | > 100 | equipotent to TPH104 |  |  | 
COc1cccc(/C=N/Nc2ncnc3scc(-c4ccccc4)c23)c1O [TPH104c] | 0.23 ± 0.01 | 0.18 ± 0.02 | 10.7 ± 1.1 | > 100 | > 100 | equipotent to TPH104 |  |  | 
Cc1ccc(-c2csc3ncnc(N/N=C/c4ccccc4O)c23)cc1 [TPH104d] | 2.29 ± 0.16 | 2.22 ± 1.82 | 6.05 ± 2.02 | > 100 | 33.1 ± 2.33 | moderate potency compared to TPH104 |  |  | 
COc1cc(OC)c(OC)cc1/C=N/Nc1ncnc2scc(-c3ccccc3)c12 [TPH104e] | > 100 | > 100 | > 100 | > 100 | > 100 | poor or no potency |  |  | 
COc1ccccc1/C=N/Nc1ncnc2scc(-c3ccccc3)c12 [TPH104f] | 29.38 ± 0.08 | 7.87 ± 1.53 | > 100 | > 100 | > 100 | poor or no potency |  |  | 
COc1ccc(/C=N/Nc2ncnc3scc(-c4ccc(C)cc4)c23)c(OC)c1OC [TPH104g] | 27.64 ± 0.15 | 27.3 ± 4.53 | 28.9 ± 2.61 | 27.2 ± 2.92 | > 100 | poor or no potency |  |  | 
COc1cccc(/C=N/Nc2ncnc3scc(-c4ccccc4)c23)c1OC [TPH104h] | 96.7 ± 0.14 | > 100 | > 100 | 63 ± 2.89 | > 100 | poor or no potency |  |  | 
COc1ccc(/C=N/Nc2ncnc3scc(-c4ccccc4)c23)c(OC)c1 [TPH104i] | > 100 | > 100 | > 100 | > 100 | > 100 | poor or no potency |  |  | 
Oc1ccccc1/C=N/Nc1ncnc2scc(-c3ccccc3)c12 [TPH104j] | 0.78 ± 0.28 | 0.56 ± 0.34 | 3.42 ± 1.53 | 2.84 ± 0.96 | 4.52 ± 1.38 | moderate potency compared to TPH104 |  |  | 
Oc1cc(Br)ccc1/C=N/Nc1ncnc2scc(-c3ccccc3)c12 [TPH104k] | 1.29 ± 0.52 | 0.91 ± 0.09 | 6.07 ± 5.18 | 15.6 ± 6.5 | > 100 | moderate potency compared to TPH104 |  |  | 
Oc1ccc(/C=N/Nc2ncnc3scc(-c4ccccc4)c23)c(O)c1 [TPH104l] | 0.78 ± 0.38 | 1.47 ± 0.84 | 8.68 ± 1.04 | 6.59 ± 0.58 | > 100 | moderate potency compared to TPH104 |  |  | 
CCOc1cc(/C=N/Nc2ncnc3scc(-c4ccccc4)c23)ccc1O [TPH104n] | 23.1 ± 1.88 | 21.7 ± 0.3 | 21.5 ± 3.67 | > 100 | > 100 | poor or no potency |  |  | 
Cc1ccc(-c2csc3ncnc(N/N=C/c4ccc(C)cc4O)c23)cc1 [TPH104o] | 0.43 ± 0.19 | 0.56 ± 0.24 | 1.04 ± 0.54 | 1.22 ± 0.6 | > 100 | moderate potency compared to TPH104 |  |  | 
COc1cc(OC)c(OC)cc1/C=N/Nc1ncnc2scc(-c3ccc(Cl)cc3)c12 [TPH104p] | 62.2 ± 8.83 | 55.9 ± 0.98 | 23 ± 0.59 | > 100 | > 100 | poor or no potency |  |  | 
COc1cc(/C=N/Nc2ncnc3scc(-c4ccccc4)c23)ccc1O [TPH104q] | 18.6 ± 2.57 | 22.2 ± 0.78 | 21.4 ± 3.11 | 23.5 ± 1.12 | > 100 | poor or no potency |  |  | 
CCN(CC)CCCC(C)Nc1ccnc2cc(Cl)ccc12 (stereo not drawn) [chloroquine, reference compound] |  |  |  |  |  |  | no significant change |  | 
CC(=O)O[C@H]1C(=O)[C@@]2(C)[C@H]([C@H](OC(=O)c3ccccc3)[C@]3(O)C[C@H](OC(=O)[C@H](O)[C@@H](NC(=O)c4ccccc4)c4ccccc4)C(C)=C1C3(C)C)[C@]1(OC(C)=O)CO[C@@H]1C[C@@H]2O [paclitaxel, reference compound] |  |  |  |  |  |  |  | significantly increased | 
necrostatin-1 [nec-1, reference compound] |  |  |  |  |  |  |  |  | significantly downregulated
